In patent US11198869B2, “Angelman syndrome antisense treatment” (The Texas A&M University System, priority 2017, dated 2021):

Tested on: paternal Ube3aYFP protein
Experiment: Paternal Ube3aYFP protein levels by immunofluorescent imaging in mouse primary hippocampal neurons
Assay type: cell-based
Settings: treated 7 DIV, imaged 10 DIV; ASOs 1, 5, 15 μM, Topotecan 300 nM; compared to ASO-C and Veh
Method: Based on these findings, mouse-specific ASOs were designed to target a specific region in the Ube3a-AS transcript (Table 6 and FIG. 2A). To test whether ASOs targeting this region reactivate expression of the paternal Ube3a allele, primary hippocampal neuronal cultures were generated from the Ube3aYFP reporter mouse model (Ube3a+/YFP; FIG. 2B) and treated at 7 days in vitro (DIV) with a control ASO [ASO-C (10 uM, n=3)], three ASOs targeting Ube3a-AS [ASO-1.1, ASO-1.2, ASO-3.1 (1 μM, 5 μM, and 15 μM, n=3)], and ASO-B (1 μM, 5 μM, and 15 μM, n=3)]. As a positive control, neurons were also treated with Topotecan [Topo (300 nM, n=3)] and a negative vehicle control [Veh (1%, n=3); FIG. 2 C]. Three days post-treatment (10 DIV), immunofluorescent imaging was used to quantify paternal Ube3aYFP protein levels in individual cells.
Primary cultures of hippocampal neurons were generated from P0-P1 pups (Ube3a^m+/p+ and Ube3a^m+/pYFP) by crossing Ube3a^m+/pYFP males with wild-type C57BL/6J females. Genotypes were determined using methods described previously. Briefly, hippocampal neurons were cultured in Neurobasal A medium (Invitrogen, San Diego, Calif.) supplemented with B27 (Invitrogen) and penicillin/streptomycin (Invitrogen) on 96-well optical bottom plates coated with poly-D-Lysine (152028, Thermo Fisher Scientific) and laminin (23017-01, Thermo Fisher Scientific). […]

**Q.** For “C^O*C^O*A^O*C^O*A^O*t*t*t*c*c*t*c*t*c*a*U^O*G^O*G^O*A^O*A^O [ASO-1.1]”, which “paternal Ube3aYFP protein levels” value is on record?
**A.** level similar to that achieved by the optimal concentration of Topotecan
